Measurements as given in patent US4708966A, “Novel anti-inflammatory agents, pharmaceutical compositions and methods for reducing inflammation” (The Procter & Gamble Company, priority 1986, dated 1987).

Legend:
[1] = test system: carrageenan rat paw edema; assay: Carrageenan Rat Paw Edema Test; format: in vivo, Male Sprague-Dawley rats; settings: for inhibition in vivo at 100 mg/kg: po, 100 mg/kg P.O., paw volume 4 h after carrageenan, vs control group, read-out: Percent Inhibiton at 100 mg/kg dose P.O; for ED35: 4 h, oral, by regression analysis, read-out: ID35
Procedure: Carrageenan Rat Paw Edema Test
Male Sprague-Dawley rats (Charles River Laboratories) are weighed and food fasted overnight. The animals are then divided into four to six groups of six animals each according to body weights (average about 145 g) so that each group has about the same average body weight (within 10 g).
The following morning animals are dosed with the test compound and then placed in individual cages. For oral dosing, the drug is suspended in 0.5% methyl cellulose with 2% Tween 80, and delivered via stomach tube in a 5 ml volume.
Paw volumes (0 time) are determined on both hind paws with a mercury displacement device equipped with a transducer and digitizer. One hour after dosing the test compound, the animals are placed in a plastic restrainer and 50 ul of a 1% (w/w) carrageenan solution in 0.9% saline is injected into the ventral surface of the left rear paw. Four hours after the carrageenan injection, the paw volumes are again determined.
The results are expressed as percent inhibition of the mean paw volume of the test group relative to the control group. Statistical differences are determined by one way analysis of variance. ID35 values are determined by regression analysis.

[2] = test system: oxazolone-induced inflamed mouse ear; assay: Oxazolone-Induced Inflamed Mouse Ear Test (Ox-IMET); format: in vivo, Adult male Cox ICR mice; settings: topical, 25 ul of 10% in ethanol, 24 h after challenge, vs control group, read-out: Percent Inhibition
Procedure: Oxazolone-Induced Inflamed Mouse Ear Test ("Ox-IMET")
Adult male Cox ICR mice, 25-35 g, are sensitized by applying 3% oxazolone in olive oil to the clipped abdomen of each animal using a cotton swab. One week later, the mice are challenged on the inner surface of the left ear with 3% oxazolone in aceotone. At the same time 25 ul of the test compound (10% in ethanol) is applied to the outer surface of the same ear. Twenty four hours after the challenge, the animals are sacrificed by cervical dislocation and both ears are removed. A 5 mm punch biopsy is removed from both ears and is weighed to the nearest 0.1 mg on a Cahn electrobalance. Ten animals are used per group. The study usually consists of 4 to 6 groups, of which one is a control group which is challenged on the left ear, but is not treated with a test compound. The results are expressed as percent inhibition of the swelling response compared to the control group. Statistical tests for significance between groups are made using a one way analysis of variance of the ear weight differences.

[3] = test system: arachidonic acid-induced inflamed mouse ear; assay: Arachidonic Acid-Induced Inflamed Mouse Ear Test; format: in vivo, Adult male Cox ICR mice; settings: for inhibition in vivo at 50 µg/ear: Mus musculus, 50 ug/ear topical, 3 hours, read-out: Percent Inhibition at 50 ug/ear topical dose; for ID50: topical, by regression analysis
Procedure: Arachidonic Acid-Induced Inflamed Mouse Ear Test
All drugs are dissolved with arachidonic acid in the vehicle. At the end of 3 hours, animals are sacrificed by cervical dislocation and both ears are removed. A 5 mm punch biopsy is removed from both ears and is weighed to the nearest 0.1 mg on a Cahn electrobalance. Ten animals are used per group. The study usually consists of 4 to 6 groups, of which one is a control group which is treated on the left ear with only arachidonic acid in the vehicle. The results are expressed as percent inhibition of the swelling response compared to the control group. Statistical tests for significance between groups are made using a one way analysis of variance of the ear weight differences. ID50 values are determined by regression analysis.

For `C#CCC(C)(C)C(=O)c1cc(C(C)(C)C)c(O)c(C(C)(C)C)c1` [Compound 8, 4-(2', 2'-dimethyl-4'-pentynoyl)-2,6-di-t-butylphenol], the inhibition in vivo at 100 mg/kg [1] was 50.4% and the inhibition in vivo at 10 % [2] was 38.3%.

Work on `C#CC(=O)CCc1cc(C(C)(C)C)c(O)c(C(C)(C)C)c1` [Compound 10, 4-(4'-pentyn-3'-one)-2,6-di-t-butylphenol] yielded an inhibition in vivo at 50 µg/ear [3] of 64.9%, an ED35 [1] of 24.5 mg/kg and an inhibition in vivo at 100 mg/kg [1] of 92.2%.

With `C#CCCC(=O)c1cc(C(C)(C)C)c(O)c(C(C)(C)C)c1` [Compound 5, 4-(4'-pentynoyl)-2,6-di-t-butylphenol] the ED35 [1] was 8.1 mg/kg, the inhibition in vivo at 100 mg/kg [1] was 61.3% and the inhibition in vivo at 10 % [2] was 25.3%.

Work on `CC(C)(C)c1cc(C(=O)CC2OCCO2)cc(C(C)(C)C)c1O` [Compound 30, 4-(2'-(1",3"-dioxolane)acetyl)-2,6-di-t-butylphenol] yielded an inhibition in vivo at 50 µg/ear [3] of 69.1%, an ID50 [3] of 29.5 ug/ear and an ED35 [1] of 35.2 mg/kg. The inhibition in vivo at 100 mg/kg [1] was 72.8% and the inhibition in vivo at 10 % [2] was 33.4%.

Compound `COC(Cc1cc(C(C)(C)C)c(O)c(C(C)(C)C)c1)OC` [Compound 33, 4-(2',2'-dimethoxyethyl)-2,6-di-t-butylphenol] has an inhibition in vivo at 10 % [2] of 54.1%.

`C#CCCCCCC(=O)c1cc(C(C)(C)C)c(O)c(C(C)(C)C)c1` [Compound 26, 4-(7'-octynoyl)-2,6-di-t-butylphenol] gave an ED35 [1] of 110 mg/kg and an inhibition in vivo at 100 mg/kg [1] of 43.3%.

In the case of `C=CCCC(=O)c1cc(C(C)(C)C)c(O)c(C(C)(C)C)c1` [Compound 6, 4-(4'-pentenoyl)-2,6-di-t-butylphenol], the ED35 [1] is reported as 3.3 mg/kg, the inhibition in vivo at 100 mg/kg [1] is reported as 71.2% and the inhibition in vivo at 10 % [2] is reported as 46%.

`C#CCCCC(=C)c1cc(C(C)(C)C)c(O)c(C(C)(C)C)c1` [Compound 16, 4-(1'-methylidene-5'-hexynyl)-2,6-di-t-butylphenol] showed an inhibition in vivo at 100 mg/kg [1] of 25.7% and an inhibition in vivo at 10 % [2] of 30.3%.

`C#CC(O)c1cc(C(C)(C)C)c(O)c(C(C)(C)C)c1` (stereo not shown) [Compound 2, 4-(1'-hydroxy-2'-propynyl)-2,6-di-t-butylphenol] was tested, and the ED35 [1] was 46.8 mg/kg, the inhibition in vivo at 100 mg/kg [1] was 75.6% and the inhibition in vivo at 10 % [2] was 27.3%.

`C#CC[C@@H](C)CC(=O)c1cc(C(C)(C)C)c(O)c(C(C)(C)C)c1` [Compound 18, 4-((R)-(+)-3'-methyl-5'-hexynoyl)-2,6-di-t-butylphenol] gave an ED35 [1] of 2.5 mg/kg, an inhibition in vivo at 100 mg/kg [1] of 72% and an inhibition in vivo at 10 % [2] of 54.5%.

Work on `C#CCC(=O)c1cc(C(C)(C)C)c(O)c(C(C)(C)C)c1` [Compound 3, 4-(3'-butynoyl)-2,6-di-t-butylphenol] yielded an inhibition in vivo at 50 µg/ear [3] of 61.6%, an ID50 [3] of 22.7 ug/ear and an ED35 [1] of 9.9 mg/kg. For the same compound, the inhibition in vivo at 100 mg/kg [1] was 66.9%.

With `C=C=CC(=O)c1cc(C(C)(C)C)c(O)c(C(C)(C)C)c1` [Compound 4, 4-butadienoyl-2,6-di-t-butylphenol] the inhibition in vivo at 50 µg/ear [3] was 79.6%, the ID50 [3] was 6.6 ug/ear and the inhibition in vivo at 100 mg/kg [1] was 64.9%.

Compound `C#CCCCCC(=O)c1cc(C(C)(C)C)c(O)c(C(C)(C)C)c1` [Compound 23, 4-(6'-heptynoyl)-2,6-di-t-butylphenol] has an ED35 [1] of 17.4 mg/kg and an inhibition in vivo at 100 mg/kg [1] of 67.9%.

For `C#CCCCC(=O)c1cc([Si](C)(C)C)c(O)c([Si](C)(C)C)c1` [Compound 20, 4-(5'-hexynoyl)-2,6-bis-trimethylsilylphenol], the ED35 [1] was 34.2 mg/kg and the inhibition in vivo at 100 mg/kg [1] was 73.1%.

`C#CCCCC(=O)c1cc([Si](C)(C)C)cc([Si](C)(C)C)c1` [Compound 21, 1-(5'-hexynoyl)-3,5-bis-trimethylsilylbenzene] gave an ED35 [1] of ~90 mg/kg and an inhibition in vivo at 100 mg/kg [1] of 41.7%.

`C#CCC(CC#C)C(=O)CCc1cc(C(C)(C)C)c(O)c(C(C)(C)C)c1` [Compound 25, 4-(4'-(2"-propynyl)-6'-heptyn-3'-one)-2,6-di-t-butylphenol] gave an inhibition in vivo at 10 % [2] of 40.4%.

With `C#CCC(C)(C)CC(=O)c1cc(C(C)(C)C)c(O)c(C(C)(C)C)c1` [Compound 35, 4-(3',3'-dimethyl-5'-hexynoyl)-2,6-di-t-butylphenol] the inhibition in vivo at 100 mg/kg [1] was 61.1%.

In the case of `C#CC(=O)c1cc(C(C)(C)C)c(O)c(C(C)(C)C)c1` [Compound 1, 4-propynoyl-2,6-di-t-butylphenol], the ED35 [1] is reported as 40 mg/kg and the inhibition in vivo at 100 mg/kg [1] is reported as 65%.

For `CCOC(CC(=O)c1cc(C(C)(C)C)c(O)c(C(C)(C)C)c1)OCC` [Compound 31, 4-(3',3'-diethoxypropionyl)-2,6-di-t-butylphenol], the inhibition in vivo at 50 µg/ear [3] was 82.8% and the ID50 [3] was 15.3 ug/ear.

Work on `C#CC(=O)/C=C/c1cc(C(C)(C)C)c(O)c(C(C)(C)C)c1` [Compound 27, 4-((E)-1'-penten-4'-yn-3'-one)-2,6-di-t-butylphenol] yielded an inhibition in vivo at 50 µg/ear [3] of 34.8%, an ID50 [3] of 52.4 ug/ear and an ED35 [1] of 28.3 mg/kg. It also gave an inhibition in vivo at 100 mg/kg [1] of 62.8%.

In the case of `C#CCCC(=O)CCc1cc(C(C)(C)C)c(O)c(C(C)(C)C)c1` [Compound 24, 4-(6'-heptyn-3'-one)-2,6-di-t-butylphenol], the inhibition in vivo at 10 % [2] is reported as 38.2%.

`C#CCCCC(=O)c1cc(C(F)(F)F)cc(C(F)(F)F)c1` [Compound 22, 1-(5'-hexynoyl)-3,5-bis(trifluoromethyl)benzene] gave an inhibition in vivo at 100 mg/kg [1] of 47%.

`C#CC[C@H](C)CC(=O)c1cc(C(C)(C)C)c(O)c(C(C)(C)C)c1` [Compound 17, 4-((S)-(-)-3'-methyl-5'-hexynoyl)-2,6-di-t-butylphenol] gave an ED35 [1] of 4.4 mg/kg, an inhibition in vivo at 100 mg/kg [1] of 75.5% and an inhibition in vivo at 10 % [2] of 59.5%.

`C#CCCCC(=O)c1cc(C(C)(C)C)cc(C(C)(C)C)c1` [Compound 19, 1-(5'-hexynoyl)-3,5-di-t-butylbenzene] was tested, and the ED35 [1] was 45.3 mg/kg and the inhibition in vivo at 100 mg/kg [1] was 71.7%.

`C#CCCCC(O)c1cc(C(C)(C)C)c(O)c(C(C)(C)C)c1` (stereo not shown) [Compound 14, 4-(1'-hydroxy-5'-hexynyl)-2,6-di-t-butylphenol] gave an ED35 [1] of 30 mg/kg and an inhibition in vivo at 100 mg/kg [1] of 54.4%.

With `C#CCC(C(=O)c1cc(C(C)(C)C)c(O)c(C(C)(C)C)c1)C(OC)OC` (stereo not shown) [Compound 7, 4-(2'-dimethoxymethyl-4'-pentynoyl)-2,6-di-t-butylphenol] the inhibition in vivo at 100 mg/kg [1] was 53.6% and the inhibition in vivo at 10 % [2] was 40.9%.

For `CC(C)(C)c1cc(C(=O)CC2OCCS2)cc(C(C)(C)C)c1O` (stereo not shown) [Compound 32, 4-(2'-(1",3"-oxathiolane)acetyl)-2,6-di-t-butylphenol], the inhibition in vivo at 100 mg/kg [1] was 50.8% and the inhibition in vivo at 10 % [2] was 44.5%.

With `COC(CC(=O)CCc1cc(C(C)(C)C)c(O)c(C(C)(C)C)c1)OC` [Compound 34, 4-(5',5'-dimethoxy-3'-pentanone)-2,6-di-t-butylphenol] the inhibition in vivo at 100 mg/kg [1] was 66.1%.

In the case of `C#CCCC(C)C(=O)c1cc(C(C)(C)C)c(O)c(C(C)(C)C)c1` (stereo not shown) [Compound 13, 4-(2'-methyl-5'-hexynoyl)-2,6-di-t-butylphenol], the inhibition in vivo at 50 µg/ear [3] is reported as 74.4%, the ID50 [3] is reported as 17.5 ug/ear and the ED35 [1] is reported as 17.9 mg/kg. For the same compound, the inhibition in vivo at 100 mg/kg [1] was 69.8%.

For `COC(CC(=O)c1cc(C(C)(C)C)c(O)c(C(C)(C)C)c1)OC` [Compound 29, 4-(3',3'-dimethoxypropionyl)-2,6-di-t-butylphenol], the ED35 [1] was 28.2 mg/kg and the inhibition in vivo at 100 mg/kg [1] was 70.7%.

Compound `C#CC(C)(C)CC(=O)c1cc(C(C)(C)C)c(O)c(C(C)(C)C)c1` [Compound 9, 4-(3',3'-dimethyl-4'-pentynoyl)-2,6-di-t-butylphenol] has an inhibition in vivo at 100 mg/kg [1] of 41.7% and an inhibition in vivo at 10 % [2] of 23.2%.

Work on `C#CCCCCc1cc(C(C)(C)C)c(O)c(C(C)(C)C)c1` [Compound 15, 4-(5'-hexynyl)-2,6-di-t-butylphenol] yielded an ED35 [1] of 55.2 mg/kg, an inhibition in vivo at 100 mg/kg [1] of 75.7% and an inhibition in vivo at 10 % [2] of 39.6%.

Compound `C=CCCC(=O)/C=C/c1cc(C(C)(C)C)c(O)c(C(C)(C)C)c1` [Compound 28, 4-((E)-1',6'-heptadiene-3'-one)-2,6-di-t-butylphenol] has an inhibition in vivo at 10 % [2] of 37.4%.

For `C=CCCCC(=O)c1cc(C(C)(C)C)c(O)c(C(C)(C)C)c1` [Compound 12, 4-(5'-hexenoyl)-2,6-di-t-butylphenol], the ED35 [1] was 11.4 mg/kg, the inhibition in vivo at 100 mg/kg [1] was 59.9% and the inhibition in vivo at 10 % [2] was 29.7%.
